Measurements published in patent EP0337441A2, “Expression of a functional form of a herpes virus DNA polymerase in yeast” (E.R. Squibb & Sons, Inc., priority 1988, dated 1989).
Read-outs that look alike come from different tables or passages of the source.

Key:
HSV-1 DNA pol [1] = target: T1, HSV-1 DNA pol (Human herpesvirus 1, UniProt P04292); assay: HSV DNA pol assay (high salt, 100 mM ammonium sulfate), 3H-TTP incorporation into nicked calf thymus DNA by cell extracts; assay type: biochemical; details: for high salt activity in the Y-MH202 yeast cell extracts (result in words): Y-MH202 extract, 23 µM ACVTP, 5.3 µM aphidicolin
T1 sequence (P04292 whole entry): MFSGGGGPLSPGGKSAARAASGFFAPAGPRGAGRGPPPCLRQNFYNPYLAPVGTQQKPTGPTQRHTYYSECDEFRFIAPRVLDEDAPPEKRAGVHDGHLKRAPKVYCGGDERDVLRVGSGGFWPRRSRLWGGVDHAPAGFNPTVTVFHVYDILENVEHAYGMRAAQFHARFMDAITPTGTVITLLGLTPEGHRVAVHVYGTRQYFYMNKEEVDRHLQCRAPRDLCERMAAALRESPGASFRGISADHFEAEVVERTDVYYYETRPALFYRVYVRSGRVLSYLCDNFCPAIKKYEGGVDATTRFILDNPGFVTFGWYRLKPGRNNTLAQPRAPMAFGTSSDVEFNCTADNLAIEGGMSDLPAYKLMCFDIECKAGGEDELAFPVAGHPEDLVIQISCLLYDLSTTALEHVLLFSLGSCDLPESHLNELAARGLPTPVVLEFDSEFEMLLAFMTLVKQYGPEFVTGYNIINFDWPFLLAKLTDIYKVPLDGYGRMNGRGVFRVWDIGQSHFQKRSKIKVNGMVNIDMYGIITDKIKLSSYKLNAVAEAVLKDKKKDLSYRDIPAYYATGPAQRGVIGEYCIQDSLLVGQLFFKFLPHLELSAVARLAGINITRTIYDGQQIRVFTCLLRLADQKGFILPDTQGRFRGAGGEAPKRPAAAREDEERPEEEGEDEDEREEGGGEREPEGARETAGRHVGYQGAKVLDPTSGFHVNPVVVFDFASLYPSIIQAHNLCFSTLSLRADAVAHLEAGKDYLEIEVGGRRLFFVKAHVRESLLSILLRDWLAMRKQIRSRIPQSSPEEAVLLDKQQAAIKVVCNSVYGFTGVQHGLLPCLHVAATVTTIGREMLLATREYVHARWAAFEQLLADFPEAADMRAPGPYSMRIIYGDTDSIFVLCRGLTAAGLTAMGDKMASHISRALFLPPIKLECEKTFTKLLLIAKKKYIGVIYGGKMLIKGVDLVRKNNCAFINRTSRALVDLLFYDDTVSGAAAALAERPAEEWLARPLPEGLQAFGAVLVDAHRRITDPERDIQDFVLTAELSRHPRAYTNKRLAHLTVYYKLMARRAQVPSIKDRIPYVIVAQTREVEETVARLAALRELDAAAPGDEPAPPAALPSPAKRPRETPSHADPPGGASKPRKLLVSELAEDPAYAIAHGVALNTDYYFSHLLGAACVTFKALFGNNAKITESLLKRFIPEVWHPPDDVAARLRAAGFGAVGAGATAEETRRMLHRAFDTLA
Method: (§1) In order to determine whether HSV pol protein was expressed and whether HSV specific DNA polymerase activity could be detected in yeast cells containing pMH202, the following experiments were performed. This description represents only one example of how such a strain can be constructed. Other examples may include a different yeast host strain and/or a different transformation procedure. Yeast cells (Y 294) were transformed with pMH101 (control plasmid without the HSV pol gene) or pMH202 (expression plasmid with HSV pol gene) DNAs. Transformation of the yeast cells was accomplished using the method of J. D. Beggs (1978. Nature 275: 104 - 109). The transformants were selected for uracil prototrophy by growth on minimal media containing 182.2 g/L sorbitol; 20 g/L glucose; 6.7 g/L yeast nitrogen base (Difco) supplemented with 30µg/ml leucine, 20µg/ml histidine, 20µg/ml tryptophan and 2% glucose but lacking uracil. One colony of each type (designated Y-MH101 or Y-MH202, respectively) was selected at random for further analysis. 100 ml overnight cultures were grown from these two strains in minimal media (0.7% yeast nitrogen base [Difco]) containing the required amino acids as described above and 2% raffinose. The following day, cultures were divided in half, cells were pelleted, resuspended in 100 ml of fresh media containing either 2% raffinose or 2% galactose and again grown overnight. The following day, the four cultures were pelleted at 4°C. Cell lysates were prepared as described by Johnson et al. (1985 . Cell 43:369 - 377). This represents only one example of how such a lysate may be prepared. Cell pellets were resuspended in 1 ml 50 mM Tris-HCl, pH 8.0; 50mM NaCl, 1% dimethylsulfoxide; 10% glycerol; 5mM beta-mercaptoethanol; 10mM EDTA; 2mM benzamidine; and 1mM phenylmethylsulfonylfluoride (PMSF). Lysis was achieved by vortexing the cells 15 - 20 times for 1 minute in the presence of an equal volume of acid-washed glass beads. The extent of lysis was monitored by microscopy. The lysed extracts were transferred to 1.5 ml microfuge tubes and centrifuged for 10 minutes at 12,000 x g. Extracts were stored at -80°C in 15% glycerol until use. The final protein concentration of each of the extracts was between 5 - 6 mg/ml.
Infected cell extracts were prepared essentially as described by Karkas et al. (1986. J. Med. Chem. 29:842 - 848). HeLa S3 cells were infected with HSV-1 KOS at a multiplicity of infection of 10 plaque forming units per cell and harvested at 16 hours post infection. […]
(§2) The lysates were also analyzed for DNA polymerase enzyme activity. […]

yeast alpha DNA pol = yeast alpha DNA pol (Saccharomyces cerevisiae, UniProt P13382); assay: Yeast DNA polymerase (alpha pol) assay (low salt), 3H-TTP incorporation by yeast cell extracts; assay type: biochemical, Saccharomyces cerevesiae; details: for low salt DNA pol activity, sensitivity to drug (result in words): all of the extracts tested (also HSV-infected HeLa extract), at the concentration tested; for inhibition at 5.3 µM: aphidicolin 5.3 µM
Chain of yeast alpha DNA pol (P13382 2-1468): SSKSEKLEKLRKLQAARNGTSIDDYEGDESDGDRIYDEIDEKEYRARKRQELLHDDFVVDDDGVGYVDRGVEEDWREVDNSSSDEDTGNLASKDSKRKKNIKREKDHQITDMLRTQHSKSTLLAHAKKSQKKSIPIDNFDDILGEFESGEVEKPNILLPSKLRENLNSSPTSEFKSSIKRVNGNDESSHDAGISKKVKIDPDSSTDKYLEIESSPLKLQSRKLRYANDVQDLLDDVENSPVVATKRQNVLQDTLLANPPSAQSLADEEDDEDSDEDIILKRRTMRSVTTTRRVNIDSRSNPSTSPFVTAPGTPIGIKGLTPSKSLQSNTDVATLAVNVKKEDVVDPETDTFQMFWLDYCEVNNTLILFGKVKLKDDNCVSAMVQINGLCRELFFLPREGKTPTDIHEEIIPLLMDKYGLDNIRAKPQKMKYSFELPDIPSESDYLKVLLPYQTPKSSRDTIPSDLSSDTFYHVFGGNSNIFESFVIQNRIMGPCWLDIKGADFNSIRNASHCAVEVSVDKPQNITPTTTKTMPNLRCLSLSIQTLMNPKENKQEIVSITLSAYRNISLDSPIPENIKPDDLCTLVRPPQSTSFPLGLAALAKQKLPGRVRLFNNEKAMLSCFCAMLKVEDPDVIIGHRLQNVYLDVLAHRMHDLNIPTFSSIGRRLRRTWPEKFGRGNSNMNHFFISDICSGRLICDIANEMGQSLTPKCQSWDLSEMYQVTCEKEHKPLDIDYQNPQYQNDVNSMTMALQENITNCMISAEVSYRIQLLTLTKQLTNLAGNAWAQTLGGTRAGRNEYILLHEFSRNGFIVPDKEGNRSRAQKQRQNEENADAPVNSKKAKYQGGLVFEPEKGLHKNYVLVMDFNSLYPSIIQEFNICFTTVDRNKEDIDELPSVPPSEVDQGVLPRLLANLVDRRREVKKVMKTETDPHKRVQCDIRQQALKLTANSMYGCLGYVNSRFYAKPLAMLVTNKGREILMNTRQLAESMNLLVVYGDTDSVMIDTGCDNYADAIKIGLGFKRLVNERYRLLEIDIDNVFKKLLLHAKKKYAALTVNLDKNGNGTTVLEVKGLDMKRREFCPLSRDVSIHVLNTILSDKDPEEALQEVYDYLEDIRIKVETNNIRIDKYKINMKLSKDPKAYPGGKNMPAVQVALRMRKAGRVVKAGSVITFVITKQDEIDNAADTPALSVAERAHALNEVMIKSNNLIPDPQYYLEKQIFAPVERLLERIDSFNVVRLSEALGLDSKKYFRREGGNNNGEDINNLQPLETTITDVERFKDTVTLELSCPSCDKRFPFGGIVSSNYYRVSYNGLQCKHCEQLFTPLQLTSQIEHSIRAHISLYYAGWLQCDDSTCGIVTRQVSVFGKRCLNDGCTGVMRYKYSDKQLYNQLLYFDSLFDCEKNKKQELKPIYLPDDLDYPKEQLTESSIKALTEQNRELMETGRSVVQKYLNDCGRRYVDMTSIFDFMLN
Method: as §1
The lysates were also analyzed for DNA polymerase enzyme activity. Each of the four yeast cell extracts was assayed for DNA pol activity under two sets of conditions. The yeast DNA pol assay conditions were designed to detect the alpha polymerase which should be present in all lysates. The HSV DNA pol assay conditions were chosen to detect HSV specific DNA pol activity which is enhanced by high salt (100mM ammonium sulfate). In contrast, the yeast alpha DNA pol is inhibited under these salt conditions. The assay for yeast DNA polymerase was performed essentially as described in Celniker and Campbell (1982. Cell 31:201 - 213), but without addition of ribonucleotide triphosphates. Reaction mixtures contained 5µl of enzyme extract (25 - 30 µg of protein) in 10mM Tris-HCl, pH 7.5; 10 mM MgCl₂; 10 mM (NH₄)₂SO₄; 0.1 mM DTT; 100 µM each of dATP, dCTP, dGTP; 100 µM ³H-TTP (10 cpm/pmol); 40 µg/ml nicked calf thymus DNA; and 2 mM spermidine in a final volume of 50 µl. The assay for the HSV-1 DNA pol was performed as follows. […] The filters were washed thoroughly, twice using 1N HCl and once using 95% ethanol; air dried and quantitated by scintillation counting using a LKB 1214 Rackbeta counter at 63% efficiency. […]

HSV-1 DNA pol [2] = target: T1, HSV-1 DNA pol; assay: HSV DNA pol assay (high salt, 100 mM ammonium sulfate), 3H-TTP incorporation into nicked calf thymus DNA by cell extracts; assay type: biochemical; parameters: made in house; host or cells: Saccharomyces cerevisiae Y294 carrying pMH202 (strain Y-MH202), galactose-induced, crude cell lysate; details: HSV pol assay conditions
Method: In order to determine whether HSV pol protein was expressed and whether HSV specific DNA polymerase activity could be detected in yeast cells containing pMH202, the following experiments were performed. This description represents only one example of how such a strain can be constructed. Other examples may include a different yeast host strain and/or a different transformation procedure. Yeast cells (Y 294) were transformed with pMH101 (control plasmid without the HSV pol gene) or pMH202 (expression plasmid with HSV pol gene) DNAs. Transformation of the yeast cells was accomplished using the method of J. D. Beggs (1978. Nature 275: 104 - 109). The transformants were selected for uracil prototrophy by growth on minimal media containing 182.2 g/L sorbitol; 20 g/L glucose; 6.7 g/L yeast nitrogen base (Difco) supplemented with 30µg/ml leucine, 20µg/ml histidine, 20µg/ml tryptophan and 2% glucose but lacking uracil. One colony of each type (designated Y-MH101 or Y-MH202, respectively) was selected at random for further analysis. 100 ml overnight cultures were grown from these two strains in minimal media (0.7% yeast nitrogen base [Difco]) containing the required amino acids as described above and 2% raffinose. […] The extent of lysis was monitored by microscopy. […]
as §2

| SMILES | high salt activity in the Y-MH202 yeast cell extracts (result in words) (HSV-1 DNA pol [1]) | inhibition at 5.3 µM (HSV-1 DNA pol [1]; read-out: % Inhibition by Drug Aphidicolin, Yeast Expressor (Y-MH202, galactose) extract, HSV pol assay conditions, aphidicolin 5.3 µM) [%] | low salt DNA pol activity, sensitivity to drug (result in words) (yeast alpha DNA pol) | inhibition at 5.3 µM (yeast alpha DNA pol; read-out: % Inhibition by Drug Aphidicolin, Yeast Control (Y-MH101, galactose) extract, alpha pol assay conditions) [%] | inhibition at 5.3 µM (yeast alpha DNA pol; read-out: % Inhibition by Drug Aphidicolin, Yeast Expressor (Y-MH202, galactose) extract, alpha pol assay conditions) [%] | inhibition at 5.3 µM (HSV-1 DNA pol [2]; read-out: % Inhibition by Drug Aphidicolin, HSV-infected HeLa cells extract, aphidicolin 5.3 µM) [%] | inhibition at 23 µM (HSV-1 DNA pol [1]; Yeast Expressor (Y-MH202, galactose) extract, HSV pol assay conditions, ACVTP 23 µM, read-out: % Inhibition by Drug ACVTP) [%] | inhibition at 23 µM (yeast alpha DNA pol; Yeast Control (Y-MH101, galactose) extract, alpha pol assay conditions, ACVTP 23 µM, 0% means relative activity ≥1.0, read-out: % Inhibition by Drug ACVTP) [%] | inhibition at 23 µM (HSV-1 DNA pol [2]; HSV-infected HeLa cells extract, ACVTP 23 µM, read-out: % Inhibition by Drug ACVTP) [%] |
| --- | --- | --- | --- | --- | --- | --- | --- | --- | --- |
| C[C@@]1(CO)[C@H](O)CC[C@@]2(C)[C@H]1CC[C@H]1C[C@@H]3C[C@@]12CC[C@]3(O)CO [Aphidicolin, aphidicolin] | inhibited | 94 | sensitive | 88 | 80 | 90 | – | – | – |
| Nc1nc2c(ncn2COCCOP(=O)(O)OP(=O)(O)OP(=O)(O)O)c(=O)[nH]1 [ACVTP, acyclovir triphosphate] | inhibited | – | not sensitive | – | – | – | 93 | 0 | 89 |
